Data as given in PubChem BioAssay AID2074 (Sanford-Burnham Center for Chemical Genomics, 2009).

Target: Dual specificity protein phosphatase 3 (Homo sapiens) (UniProt P51452)
Experiment: VHR phosphatase inhibition, SAR follow up, biochemical fluorescent readout with DiFMUP (AID 2074)
Conditions: recombinant VHR phosphatase, DiFMUP fluorescence

Dual specificity protein phosphatase 3 (Homo sapiens), sequence (P51452 whole entry, looked up): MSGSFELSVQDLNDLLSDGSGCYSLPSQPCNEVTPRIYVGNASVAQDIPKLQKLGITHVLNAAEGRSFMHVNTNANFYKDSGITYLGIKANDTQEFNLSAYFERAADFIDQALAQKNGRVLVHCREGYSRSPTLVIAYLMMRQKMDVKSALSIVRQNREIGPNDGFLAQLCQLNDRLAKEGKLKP

With `O=C1/C(=C/c2cn(-c3ccccc3)nc2-c2ccc(Cl)cc2)SC(=S)N1CCS(=O)(=O)O` the IC50 was 1800 nM.

`Cc1ccc(-c2nn(-c3ccccc3)cc2/C=C2\SC(=S)N(CCS(=O)(=O)O)C2=O)cc1` was tested, and the IC50 was 3100 nM.

`O=C1/C(=C/c2cn(-c3ccccc3)nc2-c2ccc(OCc3ccccc3)cc2)SC(=S)N1CCS(=O)(=O)O` showed an IC50 of 78 nM.

In the case of `O=C1/C(=C/c2cn(-c3ccccc3)nc2-c2ccc(OCc3ccc(Cl)cc3)cc2)SC(=S)N1CCS(=O)(=O)O`, the IC50 is reported as 18 nM.

Compound `O=C1/C(=C/c2cn(-c3ccccc3)nc2-c2ccc(S(=O)(=O)N3CCOCC3)cc2)SC(=S)N1CCS(=O)(=O)O` has an IC50 of 2400 nM.

`COc1ccc(-c2nn(-c3ccccc3)cc2/C=C2\SC(=S)N(CCS(=O)(=O)O)C2=O)cc1` was tested, and the IC50 was 1800 nM.

Work on `O=C1/C(=C/c2cn(-c3ccccc3)nc2-c2ccc(OCc3ccccc3Cl)cc2)SC(=S)N1CCS(=O)(=O)O` yielded an IC50 of 71 nM.
